# According to US9029502B2, “Inhibitors of the epidermal growth factor receptor-heat shock protein 90 binding interaction” (priority 2010, dated 2015):
# Ends that are not written are not given here. Peptide text beside a SMILES is read from it. * marks the point of attachment. Biotin = O=C1N[C@H]2[C@H](CS[C@H]2CCCCC(=O)*)N1
# Assays:
# HeLa = experiment: Clonogenic cell survival assay, HeLa; format: cell-based, human; settings: cell permeable peptides, cervical cancer, WT-EGFR
# Method: (§1) Clonogenic assays were performed using standard techniques.^34 The fraction surviving each treatment was normalized to the survival of the control cells. Peptide cell survival curves were fitted using the equation SF=(C50)^m/[(C50)^m+C^m], where SF is the surviving fraction, C is the peptide concentration, C50 is the concentration of peptide that produces a 50% cell survival and m is the slope of the sigmoid curve.
# (§2) We then assessed colonogenic survival in head and neck (UMSCC1, UMSCC10B, UMSCC74B), lung (A549, H1975, H3255), and HeLa cancer cells. Normal human esophageal squamous epithelial (Het1A) and lung fibroblast (MRC5) cell lines along with EGFR negative CHO cells were selected to study selectivity.
# MRC5 = experiment: Clonogenic cell survival assay, MRC5; format: cell-based; settings: cell permeable peptides; MRC5, normal human fibroblasts, WT-EGFR
# Method: as §1, §2
# HSP90 = biological target: T1, HSP90 (Homo sapiens, UniProt P07900); experiment: Peptide binding assay (streptavidin pull-down of biotinylated peptide, HSP90 immunoblot); settings: UMSCC1 cell lysate; 10, 30 and 100 μg/ml
# T1 construct: cell lysates from cancer or normal cells were prepared by 3 freeze-thaw cycles; endogenous in cells; host or cells: UMSCC1, H1975, Het1A, MRC5 (A11); UMSCC1 (A13)
# Method: (a) To determine if the lead peptide interacts directly with tumor HSP90, cell lysates from cancer or normal cells were prepared by 3 freeze-thaw cycles and then incubated with 3 μg/ml of specific or non-specific biotin coupled peptides for 2 hours. The peptide was affinity purified using Streptavidin-agarose beads, and bound HSP90 was detected by immunoblotting for HSP90. […] (b) The effect of the treatment with specific and non-specific peptide on HSP90-EGFR interaction was determined by IP of HSP90 followed by IB with EGFR at 24 hours post treatment. […] The increased levels of HSP70 upon GA treatment indicate inhibition of HSP90 activity. (c) Specificity of the peptide treatment compared to GA was evaluated in tumor and normal cells as described in FIG. 3b, by assessing the levels of EGFR and PARP cleavage (marker of apoptotic cell death) at 72 hours post treatment, (d) cell survival was assessed using colony formation assay.
# (a) UMSCC1 cell lysate was incubated with three concentrations of specific or non-specific peptide (10, 30 and 100 μg/ml) followed by immunoblotting with anti-HSP90 antibody. […] (b) The effect of EGFR specific peptide on HSP90's ability to bind with ATP was assessed. […] Bound protein was eluted in SDS-PAGE buffer, and the levels were determined by immunoblot analysis. […]
# A549 = experiment: Clonogenic cell survival assay, A549; format: cell-based, human; settings: cell permeable peptides; A549, lung cancer, WT-EGFR
# Method: as §1, §2
# UMSCC10B = experiment: Clonogenic cell survival assay, UMSCC10B; format: cell-based, human; settings: cell permeable peptides, H&N cancer, WT-EGFR
# Method: as §1, §2
# Het1A = experiment: Clonogenic cell survival assay, Het1A; format: cell-based; settings: cell permeable peptides, normal human epithelial, WT-EGFR
# Method: as §1, §2
# H3255 = experiment: Clonogenic cell survival assay, H3255; format: cell-based, human; settings: cell permeable peptides; H3255, lung cancer, L858R-EGFR
# Method: as §1, §2
# EGFR-HSP90 interaction = biological target: T2, EGFR-HSP90 interaction (Homo sapiens, UniProt P07900); experiment: EGFR-HSP90 interaction by immunoprecipitation and immunoblotting; format: cell-based; settings: 24-hour exposure; cancer cell lines (UMSCC1, H1975); GA 50 nM as positive control
# T2 construct: endogenous in cells; host or cells: UMSCC1, H1975, Het1A, MRC5
# EGFR = format: in vivo, mice; settings: UMSCC1 xenograft, 8 mg/kg intraperitoneally
# Method: Delivery of the peptide to the UMSCC1 xenografts was assessed after injection of peptides (8 mg/kg, i.p.), 3 days later the tumors were removed, cryosections were immunostained for EGFR, and the internalized biotinylated peptide was visualized by Streptavidin Alexa Fluor 562 reagent.
# UMSCC1 cells = experiment: Clonogenic cell survival assay, UMSCC1; format: cell-based, human
# Method: as §1, §2
# UMSCC74B = experiment: Clonogenic cell survival assay, UMSCC74B; format: cell-based, human; settings: cell permeable peptides, H&N cancer, WT-EGFR
# Method: as §1, §2
# UMSCC1 xenografts [1] = experiment: In vivo tumor growth study, UMSCC1 xenografts; design: species or system mice
# Method: (a) To determine if EGFR level was affected in the UMSCC1 xenograft tumor, mice were injected with either DMSO, specific, or non-specific biotinylated peptide (8 mg/kg) intraperitoneally. Three weeks after the injection, tumors (white arrow) along with some adjacent normal tissue (yellow arrow) were harvested. Immunostaining was performed for EGFR and HSP90. HSP90 levels were not affected by either treatment either in tumor or in the adjacent skin tissue. EGFR expression was reduced in the tumor treated with specific peptide relative to normal adjacent skin cells. (b) The effect on tumor growth was also assessed after treatment with two injections separated by 3 days. Tumor volume was recorded every other day during this period, (c) Time to tumor volume doubling was plotted for each treatment condition using Kaplan-Meier method and (d) Comparisons between any two treatment groups was analyzed by log rank tests.
# Mice were handled according to the established procedures of the University of Michigan Laboratory Animals Maintenance Manual. To generate tumor xenografts, 2×10^6 UMSCC1 cells were transplanted into the flanks of athymic nude Foxn1^nu mice (Harlan Laboratories). […]
# Tumor volume doubling was determined for each xenograft by identifying the earliest day on which it was at least twice as large as on the first day of treatment. […]
# CHO = experiment: Clonogenic cell survival assay, CHO; format: cell-based; settings: cell permeable peptides, hamster ovarian
# Method: as §1, §2
# H1975 = experiment: Clonogenic cell survival assay, H1975; format: cell-based, human; settings: cell permeable peptides; H1975, lung cancer, T790M-EGFR
# Method: as §1, §2
# C57BL/6 mice = experiment: Safety in immune-competent C57BL/6 mice; format: in vivo; settings: intraperitoneal, 10 and 30 mg/kg; for histological alterations in evaluated organs: 3 days post-injection
# Method: Mice were dosed by intraperitoneal injection with 10 and 30 mg/kg of Disruptin, and brain, lung, liver, heart, kidneys, spleen, stomach, small intestine, mesenteric lymph nodes, cecum, colon, pancreas, ovaries, bone marrow, and eyes were evaluated 3 days post-injection.
# UMSCC1 xenografts [2] = experiment: Peptide internalization assay in UMSCC1 xenografts; format: in vivo; settings: 8 mg/kg, i.p., nude mice with UMSCC1 xenografts
# Method: Delivery of the peptide to the UMSCC1 xenografts was assessed after injection of peptides (8 mg/kg, i.p.), 3 days later the tumors were removed, cryosections were immunostained for EGFR, and the internalized biotinylated peptide was visualized by Streptavidin Alexa Fluor […] reagent.
# The UMSCC1 xenografts were cryopreserved in OCT (Electron Microscopy Sciences). Five μm sections were cut from tissues prepared on days 1 and 3 after peptide treatment. Sections were fixed in cold methanol for 20 min and then were blocked with 1% Bovine Serum Albumin (BSA). The sections were incubated overnight with anti-EGFR antibody (Santa Cruz). After washing, the sections were incubated with anti-rabbit Alexa Fluor 488 (Molecular Probes) and Streptavidin conjugated Alexa Fluor 594 (Molecular Probes). Coverslips were mounted with one drop of Prolong Gold anti-fade reagent with DAPI (4,6-diamidino-2-phenylindole; Molecular Probes) to visualize the nuclei. Fluorescence images were acquired using a DP70 camera fitted on an Olympus 1X-71 microscope.
molecule,measurement,setting,value
Biotin-YGRKKRRORRR-NHVPSDVC [Non Specific Peptide],clonogenic survival (surviving fraction),HeLa,0.92 ± 0.08
same,clonogenic survival (surviving fraction),MRC5,1.04 ± 0.05
same,binding of peptide with HSP90 versus peptide concentration,HSP90,minimal interaction
same,clonogenic survival (surviving fraction),A549,0.81 ± 0.09
same,clonogenic survival (surviving fraction),UMSCC10B,0.98 ± 0.04
same,clonogenic survival (surviving fraction),Het1A,0.91 ± 0.11
same,clonogenic survival (surviving fraction),H3255,1.0 ± 0.07
same,EGFR-HSP90 interaction,EGFR-HSP90 interaction,no effect
same,HSP90 levels in tumor or adjacent skin tissue (immunostaining),EGFR,not affected
same,clonogenic survival (surviving fraction),UMSCC1 cells,1.62 ± 0.04
same,clonogenic survival (surviving fraction),UMSCC74B,0.88 ± 0.10
same,median tumor doubling time,"UMSCC1 xenografts [1]; UMSCC1 xenografts, single dose",5.5 days
same,clonogenic survival (surviving fraction),CHO,1.12 ± 0.14
same,clonogenic survival (surviving fraction),H1975,0.77 ± 0.17
DEAYVMASVDNPHVCRLLGIC [Peptide 5],Survival Fraction,"UMSCC1 cells; clonogenic survival of UMSCC1 cells, synthetic peptides delivered using Chariot",1 ± 0.14
"COC1=C2C[C@@H](C)C[C@H](OC)[C@H](O)[C@@H](C)/C=C(\C)[C@H](OC(N)=O)[C@@H](OC)/C=C\C=C(/C)C(=O)NC(=CC1=O)C2=O [Geldanamycin, reference compound]",histological alterations in evaluated organs,C57BL/6 mice,histological evidence of toxicity in eye and liver
NHVPSDVC [Peptide 8],"complete blood counts and liver cytosolic enzymes (AST, ALT)",C57BL/6 mice,not significantly different from controls
same,histological alterations in evaluated organs,C57BL/6 mice,no histological alterations
CC(C)[C@H](NC(=O)[C@H](Cc1c[nH]cn1)NC(=O)[C@@H]1CCCN1C(=O)[C@H](CC(N)=O)NC(=O)[C@H](CC(=O)O)NC(=O)[C@@H](NC(=O)[C@H](CO)NC(=O)[C@H](CCCNC(=N)N)NC(=O)[C@H](CCCNC(=N)N)NC(=O)[C@H](CCCNC(=N)N)NC(=O)[C@H](CCC(N)=O)NC(=O)[C@H](CCCNC(=N)N)NC(=O)[C@H](CCCNC(=N)N)NC(=O)[C@H](CCCCN)NC(=O)[C@H](CCCCN)NC(=O)[C@H](CCCNC(=N)N)NC(=O)CNC(=O)[C@H](Cc1ccc(O)cc1)NC(=O)CCCC[C@@H]1SC[C@@H]2NC(=O)N[C@@H]21)C(C)C)C(=O)N[C@@H](CS)C(=O)O [Specific Peptide] (Biotin-YGRKKRRQRRRSVDNPHVC-OH; N-terminus and C-terminus assumed),time post injection peptide remained detectable in xenografts,UMSCC1 xenografts [2],72 h
same,systemic toxicity,UMSCC1 xenografts [1]; UMSCC1 xenograft mice,No systemic toxicity
SVDNPHVC [Peptide 2],"complete blood counts and liver cytosolic enzymes (AST, ALT)",C57BL/6 mice,not significantly different from controls
same,histological alterations in evaluated organs,C57BL/6 mice,no histological alterations
